Test system: BSS1-GFP
Test: Fluorescence microscopy of punctate BSS1-GFP in transgenic seedlings
Type: in vivo, Arabidopsis thaliana
Details: root cells of BSS1-GFP plants treated with 50 μM BFA for 1 hour
Description: FIGS. 5C to 5E show analysis of BSS1-GFP puncta signal intensities upon treatment with Brz and BL. Seven-day-old BSS1-GFP transgenic seedlings were treated for 3 hours with 3 μM Brz (Brz), an equal volume of DMSO (Mock), or 100 μM BL (BL). […] The results are represented as the mean±s.d. The signal intensity was measured using ImageJ software. […]
The plants that were transformed with the CaMV35S-BSS1-GFP construct BSS1(-GFP)-OX and the CaMV35S-BIL1-GFP construct BIL1-GFP-OX were observed via confocal laser scanning microscopy with a BX60 fluorescence microscope (Olympus) equipped with a Model CSU10 confocal scanner (Yokogawa Electric) and LSM700 (Zeiss).
FM4-64 (Molecular Probes) dissolved in water was applied to Arabidopsis plants at a final concentration of 4 μM for 3 minutes. The plants were washed with water to remove the excessive amount of the stain and observed. A DMSO-base stock solution of Brefeldin A (BFA) (Sigma) was applied to the cells at a final concentration of 50 μM for 1 hour.
The images were analyzed using ImageJ software. To measure the ratio of the nuclear and cytosolic signals of BIL1-GFP for each cell, the signal intensities in the nucleus and cytosol were calculated from the mean of the intensity in each area. The nuclear to cytosolic signal ratio was then calculated for each cell. The average nuclear/cytosolic signal ratio and standard error were calculated from measurements of at least 54 cells from each line (FIG. 9B). Line scan measurements from the vacuole to the nucleus through the cytosol were performed, and representative plot profiles of sample measurements are presented in FIG. 5C.

C[C@H]1CCC/C=C/[C@@H]2C[C@H](O)C[C@H]2[C@H](O)/C=C/C(=O)O1 [BFA, Brefeldin A]
formation of punctate BSS1: not inhibited

Source: US10323254B2, “Method for regulating plant growth” (RIKEN, priority 2015, dated 2019)
